In patent US20080280974A1, “Spiro compounds for treatment of inflammatory disorders” (priority 2007, published 2008):

How the values were obtained:
[1] = tested on: IL-8 secreted by human pulmonary artery endothelial cells (HPAEC); test: In vitro IL-8 assay: TNF-alpha-stimulated IL-8 secretion by HPAEC, ELISA; format: cell-based; conditions: Endothelial cell, 10 microM compound, 20 hrs preincubation, then 2 ng/ml TNF-alpha for 4 hrs
Experimental: (§1) In Vitro IL-6 and IL-8 Assays
(§2) Compounds at dosing concentrations (with 0.2% DMSO vehicle) were incubated in EGM2MV cell media at 37° C. for overnight, added to 96-well plates seeded with confluent human pulmonary artery endothelial cells (HPAEC) for 20 hrs at 37° C., and then replaced with fresh dosing media containing 2 ng/ml tumor necrosis factor alpha for additional 4 hrs at 37° C. Afterwards, media was removed and used in ELISA assay to quantify the amount of IL-6 and IL-8 secreted by the cells using R&D Systems Duoset ELISA kits.

[2] = tested on: IL-6 secreted by human pulmonary artery endothelial cells (HPAEC); test: In vitro IL-6 assay: TNF-alpha-stimulated IL-6 secretion by HPAEC, ELISA; format: cell-based; conditions: Endothelial cell, 10 microM compound, 20 hrs preincubation, then 2 ng/ml TNF-alpha for 4 hrs
Experimental: as §1, §2

[3] = tested on: Balb/CJ mice, ovalbumin-sensitized and challenged; test: Mouse model of asthma: methacholine-induced airway reactivity (Penh) in ovalbumin-sensitized mice; format: in vivo; conditions: po, 768 h, 50 mg/kg p.o., days 26-32, % inhibition of the PenH vs McH dose AUC compared with vehicle control, day 32, read-out: Reduction of Penh AUC at 50 mg/kg p.o.
Experimental: Protocol for Testing Compounds in a Mouse Model of Asthma
Male 5-6 week old Balb/CJ mice were obtained from Jackson Laboratories (Bar Harbor, Me.). All experimental animals were used in accordance to Institutional Animal Care and Use Committee of AtheroGenics, Inc. Mice were sensitized by administering an intraperitoneal injection of 20 μg of ovalbumin (Calbiochem, La Jolla, Calif.) adsorbed in 2 mg of alum (Imject Alum; Pierce, Rockford, Ill.) on day 0 and 14. A group of mice received saline and served as negative control animals. The mice were challenged by aerosol exposure to ovalbumin (1% [wt/vol]) for 25 minutes on 3 consecutive days (days 28, 29, and 30) in a plexiglas exposure chamber coupled to an Aeroneb nebulizer (Buxco Electronics, Wilmington, N.C.). Experimental compounds were dissolved in Glycofurol/PEG 300/Tween (35%/55%/10%) (Sigma-aldrich; Milwaukee, Wis.). Animals were dosed orally with either test compound or vehicle (6 ml/kg dosing volume) on days 26-32 of study. Compound or vehicle was administered 2 hour before the aerosol challenge on days 28, 29, and 30 and 1 hour before airway reactivity measurement on day 32.
Methacholine-induced airway reactivity was assessed on day 32. Methacholine was administered in increasing concentrations ([…], 1.5, 3, 6, 12, 25, and 50 mg/ml) to unrestrained mice. Increases in airway resistance to Methacholine were determined as enhanced pause, (Penh) values, during and after the exposure (6-minute total analysis time). Mice were then humanely euthanized with an overdose of ketamine/xylazine and plasma samples collected for determination of drug levels. The data is presented as the % inhibition of the PenH vs McH dose AUC compared with the vehicle control.
Data analysis was conducting using the software package, JMP (SAS Institute Inc; Cary, N.C.). The Dunnett's multiple comparison test was used to compare treatment group means to the vehicle control group. P values of less than 0.05 were considered statistically significant. The data (Table 1) are presented as the % inhibition of the PenH vs McH dose AUC compared with the vehicle control.

Row | Compound | inhibition at 10 µM [1] [%] | melting point [°C] | inhibition at 10 µM [2] [%] | inhibition in vivo at 50 mg/kg [3] [%]
1 | Cc1cc2c(cc1O)C(C)(C)CC1(CC(C)(C)c3cc(OCC(=O)O)c(C)cc3O1)O2 (racemic) [Example 7, (±)-6′-(Hydroxy-4,4,4′,4′,7,7′-hexamethyl-2,2′-spirobichroman-6-yloxy)-acetic acid] | 0 | 227 to 229 | 12 | > 40
2 | Cc1cc2c(cc1O)C(C)(C)CC1(CC(C)(C)c3cc(OCCCC(=O)O)c(C)cc3O1)O2 (racemic) [Example 12, 4-[(±)-(6′-Hydroxy-4,4,4′,4′,7,7′-hexamethyl-2,2′-spirobichroman-6-yloxy)-]butyric acid] | 0 | 173 to 174 | 0 | < 20
3 | Cc1cc2c(cc1OCC(=O)O)C(C)(C)CC1(CC(C)(C)c3cc(OCC(=O)O)c(C)cc3O1)O2 (racemic) [Example 21, (±)-[(4,4,4′,4′,7,7′-Hexamethyl-2,2′-spirobichroman-6,6′-diyl)bis(oxy)]-bis-acetic acid] | 19 | > 260 | 25 | 20 to 40
